Experimental data published in the supplement of paper PMC11061612.

Key:
Assay in all cases: Bliss excess, mean over the matrix (fraction); higher = more synergy
[1] = tested on: BFTC-905 (Bladder Carcinoma)
Method in brief: (§1)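 After 24 hours at 37°C and 5% CO2 in 1536-well plates, cells in DMEM/F12 or RPMI plus 10% FBS received two-drug dose matrices for 72 hours. Viability came from CellTiter-Glo 2.0 luminescence and was scaled as inhibition, anchored at 0 by vehicle wells and at 1 by blank wells. Combination Emax is taken as the second-highest inhibition in the matrix, and Bliss excess as the observed combination effect less EA + EB − EA·EB, with EA and EB the single-agent effects.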

MEL-JUSO (Melanoma) = tested on: MEL-JUSO (Melanoma)
Method in brief: as §1

[2] = tested on: SW1417 (Colorectal Carcinoma)
Method in brief: as §1

[3] = tested on: GR-ST (B-Lymphoblastic Leukemia)
Method in brief: as §1

[4] = tested on: SW837 (Colorectal Carcinoma)
Method in brief: as §1

[5] = tested on: NCI-H1792 (Lung Adenocarcinoma)
Method in brief: as §1

[6] = tested on: TOV-112D (Ovarian Carcinoma)
Method in brief: as §1

[7] = tested on: NCI-H847 (Small Cell Lung Carcinoma)
Method in brief: as §1

[8] = tested on: K-562 (Chronic Myelogenous Leukemia)
Method in brief: as §1

[9] = tested on: EVSA-T (Breast Carcinoma)
Method in brief: as §1

WIL2-NS (Non-Cancerous) = tested on: WIL2-NS (Non-Cancerous)
Method in brief: as §1

[10] = tested on: HDQ-P1 (Breast Carcinoma)
Method in brief: as §1

[11] = tested on: DND-41 (T-Lymphoblastic Leukemia)
Method in brief: as §1

[12] = tested on: CAMA-1 (Breast Carcinoma)
Method in brief: as §1

[13] = tested on: KARPAS-45 (T-Lymphoblastic Leukemia)
Method in brief: as §1

[14] = tested on: KM12 (Colorectal Carcinoma)
Method in brief: as §1

TC-71 (Ewing's Sarcoma) = tested on: TC-71 (Ewing's Sarcoma)
Method in brief: as §1

[15] = tested on: TE-6 (Esophageal Squamous Cell Carcinoma)
Method in brief: as §1

[16] = tested on: L-540 (Hodgkin's Lymphoma)
Method in brief: as §1

[17] = tested on: MKN28 (Gastric Carcinoma)
Method in brief: as §1

Row | SMILES | Bliss excess [1] | Bliss excess (MEL-JUSO (Melanoma)) | Bliss excess [2] | Bliss excess [3] | Bliss excess [4] | Bliss excess [5] | Bliss excess [6] | Bliss excess [7] | Bliss excess [8] | Bliss excess [9] | Bliss excess (WIL2-NS (Non-Cancerous)) | Bliss excess [10] | Bliss excess [11] | Bliss excess [12] | Bliss excess [13] | Bliss excess [14] | Bliss excess (TC-71 (Ewing's Sarcoma)) | Bliss excess [15] | Bliss excess [16] | Bliss excess [17]
1 | CN(CCO)CC[C@H](CSc1ccccc1)Nc1ccc(S(=O)(=O)NC(=O)c2ccc(N3CCC([C@@H](O)c4ccccc4-c4ccc(Cl)cc4)CC3)cc2)cc1S(=O)(=O)C(F)(F)F [AZD4320] + C[C@@H](Nc1cc(F)cc(F)c1)c1cc(C(=O)N(C)C)cc2c(=O)cc(N3CCOCC3)oc12 [AZD8186] (first compound max 1 µM, 7x7, partner max 3 µM) | -0.0221 | 0.033 | 0.0346 | -0.054 | -0.0491 | 0.0942 | -0.0108 | 0.0851 | 0.0309 | 0.0222 | -0.0709 | -0.0018 | 0.0338 | 0.0218 | 0.0842 | 0.0562 | -0.027 | 0.0313 | 0.068 | 0.0229
2 | COc1cccc(OCCCN)c1-c1cc(Nc2cnc(C#N)cn2)n[nH]1 [Prexasertib] + CCc1c2c(nc3ccc(O)cc13)-c1cc3c(c(=O)n1C2)COC(=O)[C@]3(O)CC [SN-38] (first compound max 1 µM, 7x7, partner max 0.3 µM) | -0.0004 | -0.0378 | 0.0029 | -0.106 | 0.0546 | 0.0204 | 0.0183 | 0.055 | 0.0726 | 0.224 | -0.0234 | 0.0367 | -0.103 | 0.0573 | 0.0731 | 0.0186 | 0.0187 | 0.128 | -0.0621 | -0.0082
3 | C[C@@H]1COCCN1c1cc(C2([S@](C)(=N)=O)CC2)nc(-c2ccnc3[nH]ccc23)n1 [AZD6738] + O=C(c1cc(Cc2n[nH]c(=O)c3ccccc23)ccc1F)N1CCN(C(=O)C2CC2)CC1 [Olaparib] (first compound max 10 µM, 7x7, partner max 10 µM) | 0.0156 | 0.0118 | 0.0033 | -0.0471 | 0.0093 | 0.0178 | 0.0206 | -0.014 | -0.0646 | 0.0017 | -0.0083 | 0.0155 | -0.0128 | -0.0327 | 0.0023 | 0.0138 | -0.0726 | -0.0172 | -0.022 | -0.001
